# Where two headings read alike, the source gives them in different places.
# Key:
# [1] = tested on: gastric secretion; conditions: intravenous infusion in humans, cited from earlier work; for inhibition of gastric secretion (in words): spontaneous and histamine induced
# [2] = tested on: gastric acid secretion; assay: inhibition of gastric acid secretion in the pylorus ligated rat model; type: in vivo, Male Sprague-Dawley rats; conditions: for ED50: Table VII, estimated from pylorus ligated rat data; for inhibition in vivo at 2 µmol/kg / inhibition in vivo at 10 µmol/kg: Rattus norvegicus, read-out: Percent Inhibition; for inhibition in vivo at 2 µmol/kg: 2.0 μmoles/kg; for Inhibition: Table VI
# Excerpt: The gastric acid inhibition activity of direct acting 5-HT1A agonists was established by evaluations using the pylorus ligated rat model. In the pylorus ligated rat model, changes in basal acid secretion may reflect a stimulatory or inhibitory action depending on treatment of compound type tested. The compounds tested were confirmed by various receptor binding tests to have an affinity for the 5-HT1A receptor prior to testing in the pylorus ligated rat model.
# The pylorus ligated rat model used is a modification of the procedure developed by Shay (Shay, H., Komarov, A. A. and Greenstein, M.: "Effects of vagotomy in the rat." Arch. Surg. 49:210-226, 1949). Male Sprague-Dawley rats weighing approximately 200 g were starved 24 hours prior to using, with water allowed ad libitum. Under light ether anesthetic the pylorus is ligated, simultaneously the rat is dosed intraperitoneally (i.p.) or subcutaneously (s.c.) and allowed 2 hours for stomach acid accumulation. At the end of 2 hours the rats are sacrificed. Stomach content is measured and titrated to a pH end point of 7.0. Each experiment has its own control group for determining percent of acid change over the 2-hour time period.
# Specific compounds within the scope of the above general classes of direct acting 5-HT1A agonists were tested. For evaluation purposes, the compound to be tested is dissolved in distilled water, or in 10% dimethyl sulfoxide, depending upon its solubility. The results of these evaluations are set forth below in Tables I through VI. All compounds were dosed intraperitoneally, unless otherwise indicated.
# The ED50 values for certain specific compounds were estimated based on data from the pyrolus ligated rat model evaluations. […] Under "Dose", i.p. means intraperitoneally and s.c. means subcutaneously.
# [3] = ip, 2 h, Table II, intraperitoneally, 2 hours
# [4] = ip, 2 h, Table I, 10 μmoles/kg, intraperitoneally, 2 hours
# [5] = ip, 2 h, Table II, 10 μmoles/kg, intraperitoneally, 2 hours
# [6] = ip, 2 h, Table IV, 10 μmoles/kg, intraperitoneally, 2 hours
# [7] = Table I, 10 μmoles/kg, intraperitoneally, 2 hours
# [8] = ip, 2 h, Table V, 10 μmoles/kg, intraperitoneally, 2 hours
# [9] = 10 μmoles/kg, intraperitoneally, 2 hours
smiles,measurement,setting,value
"NCCc1c[nH]c2ccc(O)cc12 [5-HT, 5-hydroxytryptamine, reference compound]",production of mucus (in words),[1],increasing the production of mucus
same,inhibition of gastric secretion (in words),[1],inhibits the volume and acidity of both spontaneous and histamine induced gastric secretion
same,inhibition of gastric acid secretion,"[2]; 20 micromoles/kg, standard",56.1%
same,ED50,"[2]; ip, 2 h, i.p., read-out: ED50",11.5 µmol/kg
"CN(C)C1Cc2c[nH]c3ccc(C=O)c(c23)C1 (racemic) [Evaluation Example 17, (±)-4-(Dimethylamino)-1,3,4,5-tetrahydrobenz[c,d]indole-6-carboxaldehyde]",inhibition in vivo at 2 µmol/kg,[2]; [3],79.2 ± 4.6%
same,ED50,"[2]; ip, 2 h, i.p., read-out: ED50",1.26 µmol/kg
"O=C1CC2(CCCC2)CC(=O)N1CCCCN1CCN(c2ncccn2)CC1 [Evaluation Example 33, 8-[4-[4-(2-pyrimidinyl)-1-piperazinyl]butyl]8-azaspiro[4.5]decane-7,9-dione, reference compound]",ED50,"[2]; sc, 2 h, s.c., read-out: ED50",4.19 µmol/kg
"CCCN(CCC)C1CCc2cccc(Br)c2C1 (stereo not shown) [Evaluation Example 6, 2-Di-n-propylamino-8-bromo-1,2,3,4-tetrahydronaphthalene]",inhibition in vivo at 10 µmol/kg,[2]; [4],39.6 ± 10.9%
"N[C@@H](Cc1c[nH]c2ccc(O)cc12)C(=O)O [5-HTP, 5-hydroxytryptophane]",production of mucus (in words),[1],increasing the production of mucus
same,inhibition of gastric secretion (in words),[1],inhibits the volume and acidity of both spontaneous and histamine induced gastric secretion
CN(C)C1Cc2c[nH]c3ccc(C#N)c(c23)C1 (stereo not shown) [Evaluation Example 10],inhibition in vivo at 10 µmol/kg,[2]; [5],91.6 ± 3.9%
CCCN(CCC)C1Cc2c[nH]c3ccc(OC)c(c23)C1 (stereo not shown) [Evaluation Example 14],inhibition in vivo at 10 µmol/kg,[2]; [5],86.4 ± 4%
same,ED50,"[2]; ip, 2 h, i.p., read-out: ED50",< 0.1 µmol/kg
CCCN(CCC)C1Cc2c[nH]c3ccc(Br)c(c23)C1 (stereo not shown) [Evaluation Example 12],inhibition in vivo at 10 µmol/kg,[2]; [5],87 ± 1.8%
OC(CNC1CC2CCC1C2)COc1ccccc1C1CCCC1 (stereo not shown) [Evaluation Example 20],inhibition in vivo at 10 µmol/kg,[2]; [6],72.4 ± 7.5%
CCCN(CCC)C1CCc2cccc(F)c2C1 (stereo not shown) [Evaluation Example 7],inhibition in vivo at 10 µmol/kg,[2]; [4],24.6 ± 7.9%
"CCCN(CCC)[C@@H]1CCc2cccc(SC)c2C1.Cl [Evaluation Example 2, (R)-8-Thiomethyl-N,N-dipropyl-2-aminotetralin hydrochloride]",Percent Inhibition,[2]; [7],94.9 ± 1.2%
same,ED50,"[2]; i.p., 120 min",1.56 µmol/kg
CCCN(CCC)C1Cc2cn(C(C)C)c3ccc(OC)c(c23)C1 (stereo not shown) [Evaluation Example 16],inhibition in vivo at 10 µmol/kg,[2]; [5],80.9 ± 5.5%
"Oc1cccc2c1OC(CNCCCC1CCCCC1)CO2 (stereo not shown) [Evaluation Example 25, 2-[(3-Cyclohexylpropyl)aminomethyl]-8-hydroxy-1,4-benzodioxane]",inhibition in vivo at 10 µmol/kg,[2]; [8],70.4 ± 8.4%
CCCN(CCC)C1CC1c1ccccc1O (stereo not shown) [Evaluation Example 32],Inhibition,[2]; [9],22.6 ± 11.8
"c1ccc(CCNCC2COc3ccccc3O2)cc1 (stereo not shown) [Evaluation Example 30, 2-[(2-phenylethyl)aminomethyl]-1,4-benzodioxane]",inhibition in vivo at 10 µmol/kg,[2]; [8],0.3 ± 14.1%
CCCN(CCC)C1CCc2cccc(C(N)=O)c2C1 (stereo not shown) [Evaluation Example 4],inhibition in vivo at 10 µmol/kg,[2]; [4],82.5 ± 7.4%
CCCN(CCC)C1Cc2c[nH]c3ccc([N+](=O)[O-])c(c23)C1 (stereo not shown) [Evaluation Example 11],inhibition in vivo at 10 µmol/kg,[2]; [5],89.8 ± 1.4%
"CCCN(CCC)C1Cc2c[nH]c3ccc(C(=O)OC)c(c23)C1 (racemic) [Evaluation Example 13, (±)-4-(Di-n-propylamino)-1,3,4,5-tetrahydrobenz[c,d]indole-6-carboxylic acid, methyl ester]",inhibition in vivo at 2 µmol/kg,[2]; [3],86.4 ± 2.5%
same,ED50,"[2]; ip, 2 h, i.p., read-out: ED50",< 0.1 µmol/kg
CCCN(CCC)C1Cc2c[nH]c3ccc(C(=O)O)c(c23)C1 (stereo not shown) [Evaluation Example 15],inhibition in vivo at 10 µmol/kg,[2]; [5],81.7 ± 5.8%
same,ED50,"[2]; ip, 2 h, i.p., read-out: ED50",1 µmol/kg
COc1ccc(CCNCC2COc3ccccc3O2)cc1OC (stereo not shown) [Evaluation Example 26],inhibition in vivo at 10 µmol/kg,[2]; [8],58.9 ± 6.6%
"CSc1cccc2c1CC(N(C)C)CC2 (stereo not shown) [Evaluation Example 5, 2-Dimethylamino-8-thiomethyl-1,2,3,4-tetrahydronaphthalene]",inhibition in vivo at 10 µmol/kg,[2]; [4],80.7 ± 8.4%
CCCN(CCC)C1Cc2c[nH]c3ccc(C#N)c(c23)C1 (stereo not shown) [Evaluation Example 9],inhibition in vivo at 10 µmol/kg,[2]; [5],92.2 ± 3.2%
"OC(CNC1CCCC1)COc1ccccc1C1CCCC1 (stereo not shown) [Evaluation Example 24, 1-(2-Cyclopentylphenoxy)-3-(Cyclopentylamino)-2-propanol ethanedioate]",inhibition in vivo at 10 µmol/kg,[2]; [6],19.7 ± 14.8%
"CCCN(CCC)CCc1c[nH]c2ccc(C(N)=O)cc12 [Evaluation Example 19, N,N-dipropyl-5-carboxamidotryptamine]",inhibition in vivo at 10 µmol/kg,"[2]; ip, 2 h",92.7 ± 3.3%
"CCOc1cccc2c1OC(CNCCc1ccccc1)CO2 (stereo not shown) [Evaluation Example 27, 2-[(2-phenylethyl)aminomethyl]-8-ethoxy-1,4-benzodioxane]",inhibition in vivo at 10 µmol/kg,[2]; [8],38.3 ± 15.9%
CCCN(CCC)C1Cc2c[nH]c3ccc(C(N)=O)c(c23)C1 (stereo not shown) [Evaluation Example 18],inhibition in vivo at 10 µmol/kg,"[2]; ip, 2 h",65.5 ± 7.1%
"O=C1NCN(c2ccccc2)C12CCN(CC1COc3ccccc3O1)CC2 (single isomer, unassigned) [Evaluation Example 28]",inhibition in vivo at 10 µmol/kg,[2]; [8],29.3 ± 10%
"O=C1NCN(c2ccccc2)C12CCN(CC1COc3ccccc3O1)CC2 (single isomer, unassigned) [Evaluation Example 29]",Percent Inhibition,"[2]; Table V, 10 μmoles/kg, intraperitoneally, 2 hours",24.6 ± 9.2%
"CCCN(CCC)[C@H]1CCc2cccc(SC)c2C1.Cl [Evaluation Example 3, (S)-8-Thiomethyl-N,N-dipropyl-2-aminotetralin hydrochloride]",Percent Inhibition,[2]; [7],89.8 ± 4.9%
same,ED50,"[2]; i.p., 120 min",1.42 µmol/kg
"CCCN(CCC)C1CCc2cccc(O)c2C1 (stereo not shown) [Evaluation Example 8, 8-hydroxy-2-dipropylamino-1,2,3,4-tetrahydronaphthalene, reference compound]",inhibition in vivo at 2 µmol/kg,"[2]; ip, 2 h, Table I, intraperitoneally, 2 hours",80.1 ± 6.3%
same,ED50,"[2]; ip, 2 h, i.p., read-out: ED50",1.56 µmol/kg
same,ED50,"[2]; sc, 2 h, s.c., read-out: ED50",0.46 µmol/kg
"OC(CNC1CCCCCCC1)COc1ccccc1C1CCCC1 (stereo not shown) [Evaluation Example 21, 1-(2-Cyclopentylphenoxy)-3-(cyclooctylamino)-2-propanol ethanedioate]",inhibition in vivo at 10 µmol/kg,[2]; [6],65.1 ± 5.7%
CCCN(CCC)C1CC1c1cccc(O)c1 (stereo not shown) [Evaluation Example 31],Inhibition,[2]; [9],48.2 ± 17.5
"CCCN(CCC)C1CCc2cccc(OC)c2C1 (racemic) [Evaluation Example 1, (±) 8-methoxy-2-(dipropylamino)-1,2,3,4-tetrahydronaphthalene]",inhibition in vivo at 10 µmol/kg,[2]; [4],96.4 ± 0.7%
same,ED50,"[2]; ip, 2 h, i.p., read-out: ED50",1.54 µmol/kg

# — patent publication US5258379A, “Method of inhibiting gastric acid secretion with n-arylpiperazines” (Eli Lilly and Company, priority 1992, dated 1993)
